In PubChem BioAssay (NCI):
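All cell lines were grown in 96-well plates and treated with compound for 48 hours. TGI is the concentration that stops growth completely.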

Key:
Experiment in all cases: inhibition of tumour cell growth, NCI panel, 48 h
HCC-2998 colon = test system: HCC-2998 colon
IGROV1 ovarian = test system: IGROV1 ovarian
MOLT-4 leukemia = test system: MOLT-4 leukemia
CAKI-1 renal = test system: CAKI-1 renal
LOX IMVI melanoma = test system: LOX IMVI melanoma
SR leukemia = test system: SR leukemia
TK-10 renal = test system: TK-10 renal
CCRF-CEM leukemia = test system: CCRF-CEM leukemia
SF-268 CNS = test system: SF-268 CNS
SNB-75 CNS = test system: SNB-75 CNS
NCI/ADR-RES ovarian = test system: NCI/ADR-RES ovarian
HCT-15 colon = test system: HCT-15 colon
A498 renal = test system: A498 renal
SF-295 CNS = test system: SF-295 CNS
OVCAR-5 ovarian = test system: OVCAR-5 ovarian
MDA-MB-231 breast = test system: MDA-MB-231 breast
M14 melanoma = test system: M14 melanoma
NCI-H23 lung = test system: NCI-H23 lung
SNB-19 CNS = test system: SNB-19 CNS
DU-145 prostate = test system: DU-145 prostate
A549 NSCLC = test system: A549 NSCLC
OVCAR-3 ovarian = test system: OVCAR-3 ovarian
K-562 leukemia = test system: K-562 leukemia
SK-MEL-2 melanoma = test system: SK-MEL-2 melanoma
MDA-MB-435 = test system: MDA-MB-435
SN12C renal = test system: SN12C renal
HS 578T breast = test system: HS 578T breast
HCT-116 colon = test system: HCT-116 colon
BT-549 breast = test system: BT-549 breast
NCI-H522 lung = test system: NCI-H522 lung
OVCAR-4 ovarian = test system: OVCAR-4 ovarian
U251 CNS = test system: U251 CNS
T-47D breast = test system: T-47D breast
786-0 renal = test system: 786-0 renal
HT29 colon = test system: HT29 colon
RPMI-8226 leukemia = test system: RPMI-8226 leukemia
HL-60(TB) leukemia = test system: HL-60(TB) leukemia
HOP-62 NSCLC = test system: HOP-62 NSCLC
MDA-N = test system: MDA-N
KM12 colon = test system: KM12 colon
UACC-257 melanoma = test system: UACC-257 melanoma
PC-3 prostate = test system: PC-3 prostate
UACC-62 melanoma = test system: UACC-62 melanoma
HOP-92 NSCLC = test system: HOP-92 NSCLC
SK-OV-3 ovarian = test system: SK-OV-3 ovarian
ACHN renal = test system: ACHN renal
MCF7 breast = test system: MCF7 breast
SW-620 colon = test system: SW-620 colon
EKVX NSCLC = test system: EKVX NSCLC
COLO 205 colon = test system: COLO 205 colon
SK-MEL-5 melanoma = test system: SK-MEL-5 melanoma
OVCAR-8 ovarian = test system: OVCAR-8 ovarian
NCI-H226 lung = test system: NCI-H226 lung
RXF 393 renal = test system: RXF 393 renal
SK-MEL-28 melanoma = test system: SK-MEL-28 melanoma
UO-31 renal = test system: UO-31 renal
NCI-H460 lung = test system: NCI-H460 lung
MALME-3M melanoma = test system: MALME-3M melanoma
SF-539 CNS = test system: SF-539 CNS

CC1(C)OC(=O)N(c2ccccc2)C12C=Cc1cccc([N+](=O)[O-])c1O2 (stereo not given)
TGI (HCC-2998 colon): > 100 µM | TGI (IGROV1 ovarian): > 100 µM | TGI (MOLT-4 leukemia): 74.1 µM | TGI (CAKI-1 renal): > 100 µM | TGI (LOX IMVI melanoma): > 100 µM | TGI (SR leukemia): 50.2 µM | TGI (TK-10 renal): > 100 µM | TGI (CCRF-CEM leukemia): > 100 µM | TGI (SF-268 CNS): > 100 µM | TGI (SNB-75 CNS): > 100 µM | TGI (NCI/ADR-RES ovarian): > 100 µM | TGI (HCT-15 colon): > 100 µM | TGI (A498 renal): > 100 µM | TGI (SF-295 CNS): > 100 µM | TGI (OVCAR-5 ovarian): > 100 µM | TGI (MDA-MB-231 breast): > 100 µM | TGI (M14 melanoma): > 100 µM | TGI (NCI-H23 lung): > 100 µM | TGI (SNB-19 CNS): > 100 µM | TGI (DU-145 prostate): > 100 µM | TGI (A549 NSCLC): > 100 µM | TGI (OVCAR-3 ovarian): > 100 µM | TGI (K-562 leukemia): > 100 µM | TGI (SK-MEL-2 melanoma): > 100 µM | TGI (MDA-MB-435): > 100 µM | TGI (SN12C renal): > 100 µM | TGI (HS 578T breast): > 100 µM | TGI (HCT-116 colon): > 100 µM | TGI (BT-549 breast): > 100 µM | TGI (NCI-H522 lung): > 100 µM | TGI (OVCAR-4 ovarian): > 100 µM | TGI (U251 CNS): > 100 µM | TGI (T-47D breast): 94.9 µM | TGI (786-0 renal): > 100 µM | TGI (HT29 colon): > 100 µM | TGI (RPMI-8226 leukemia): > 100 µM | TGI (HL-60(TB) leukemia): 58.7 µM | TGI (HOP-62 NSCLC): > 100 µM | TGI (MDA-N): > 100 µM | TGI (KM12 colon): > 100 µM | TGI (UACC-257 melanoma): > 100 µM | TGI (PC-3 prostate): > 100 µM | TGI (UACC-62 melanoma): > 100 µM | TGI (HOP-92 NSCLC): > 100 µM | TGI (SK-OV-3 ovarian): 76.2 µM | TGI (ACHN renal): > 100 µM | TGI (MCF7 breast): > 100 µM | TGI (SW-620 colon): > 100 µM | TGI (EKVX NSCLC): > 100 µM | TGI (COLO 205 colon): > 100 µM | TGI (SK-MEL-5 melanoma): > 100 µM | TGI (OVCAR-8 ovarian): > 100 µM | TGI (NCI-H226 lung): > 100 µM | TGI (RXF 393 renal): > 100 µM | TGI (SK-MEL-28 melanoma): > 100 µM | TGI (UO-31 renal): > 100 µM | TGI (NCI-H460 lung): > 100 µM

COC(=O)C(Cc1c[nH]c2ccccc12)NC(=O)c1ccc(-c2ccc(Cl)cc2Cl)o1 (stereo not given)
TGI (HCC-2998 colon): 48.5 µM | TGI (IGROV1 ovarian): > 100 µM | TGI (MOLT-4 leukemia): > 100 µM | TGI (CAKI-1 renal): > 100 µM | TGI (LOX IMVI melanoma): > 100 µM | TGI (SR leukemia): > 100 µM | TGI (TK-10 renal): > 100 µM | TGI (CCRF-CEM leukemia): > 100 µM | TGI (SF-268 CNS): > 100 µM | TGI (SNB-75 CNS): > 100 µM | TGI (NCI/ADR-RES ovarian): > 100 µM | TGI (HCT-15 colon): > 100 µM | TGI (A498 renal): 67.9 µM | TGI (SF-295 CNS): > 100 µM | TGI (OVCAR-5 ovarian): > 100 µM | TGI (MDA-MB-231 breast): > 100 µM | TGI (M14 melanoma): > 100 µM | TGI (NCI-H23 lung): > 100 µM | TGI (SNB-19 CNS): > 100 µM | TGI (DU-145 prostate): > 100 µM | TGI (A549 NSCLC): > 100 µM | TGI (OVCAR-3 ovarian): > 100 µM | TGI (K-562 leukemia): > 100 µM | TGI (SK-MEL-2 melanoma): > 100 µM | TGI (MDA-MB-435): > 100 µM | TGI (SN12C renal): > 100 µM | TGI (HS 578T breast): > 100 µM | TGI (HCT-116 colon): > 100 µM | TGI (BT-549 breast): > 100 µM | TGI (NCI-H522 lung): > 100 µM | TGI (OVCAR-4 ovarian): > 100 µM | TGI (U251 CNS): > 100 µM | TGI (T-47D breast): > 100 µM | TGI (786-0 renal): > 100 µM | TGI (HT29 colon): > 100 µM | TGI (RPMI-8226 leukemia): > 100 µM | TGI (HL-60(TB) leukemia): > 100 µM | TGI (HOP-62 NSCLC): > 100 µM | TGI (MDA-N): > 100 µM | TGI (KM12 colon): > 100 µM | TGI (UACC-257 melanoma): 99.3 µM | TGI (PC-3 prostate): 49.5 µM | TGI (UACC-62 melanoma): > 100 µM | TGI (HOP-92 NSCLC): 71.4 µM | TGI (SK-OV-3 ovarian): > 100 µM | TGI (ACHN renal): > 100 µM | TGI (MCF7 breast): > 100 µM | TGI (SW-620 colon): > 100 µM | TGI (EKVX NSCLC): > 100 µM | TGI (MALME-3M melanoma): > 100 µM | TGI (COLO 205 colon): > 100 µM | TGI (OVCAR-8 ovarian): > 100 µM | TGI (NCI-H226 lung): > 100 µM | TGI (RXF 393 renal): > 100 µM | TGI (SF-539 CNS): 91 µM | TGI (SK-MEL-28 melanoma): > 100 µM | TGI (UO-31 renal): > 100 µM | TGI (NCI-H460 lung): > 100 µM
